What was measured:
[1] = system: lung fibroblasts from IPF patients; conditions: cited from earlier work
[2] = cited from earlier work
[3] = system: primary human lung fibroblasts (HLFs); assay: Fibroblast-to-myofibroblast transition (FMT), western blot for SMA; assay type: cell-based
Protocol: Primary human lung fibroblasts (Promocell) were maintained in DMEM supplemented with 10% heat-inactivated FBS, 1 mM Na-pyruvate and 1% Penicillin/Streptomycin and trypsinised every 4 days. Sub-confluent HLFs were electroporated via nucleofection (Amaxa electroporation system) with siRNAs.
(§1) HLFs, IPF donor cells, A549 cells lysates or lung tissue lysates were prepared in RIPA buffer. The patient lung biopsies study utilized biological specimens and data provided by the Lung Tissue Research Consortium (LTRC) supported by the National Heart, Lung, and Blood Institute (NHLBI). For Western blots, 1:1000-diluted mouse-anti-N-Cadherin (BD Biosciences), rabbit-anti-OB-Cadherin (Santa Cruz), mouse-anti-SMA (Sigma), mouse-anti-vimetin (DACO), mouse-anti-E-Cadherin (Abram), rabbit-anti-β-catenin (Cell Signaling Technology), anti-rabbit-p-[…]-β-catenin (Cell Signaling Technology), rabbit-anti-β-actin (Santa Cruz) and mouse-anti-GAPDH (Santa Cruz) were used in combination with HRP-conjugated secondary antibodies (GE Healthcare). Western blots were developed using an ECL system (GE Healthcare). Quantification of the intensity of the bands was performed using NIH ImageJ software.
To assess functional responses, non-transfected HLFs or HLFs transfected with siRNAs were plated in full growth medium and left to grow overnight, starved for 24 h in serum-free medium and stimulated with different growth factors for a further 24 h. For FMT assessment, the HLF cells were stimulated with 5 ng/ml TGFβ (R&D Systems) or 10 μg/ml human N-Cadherin-Fc (R&D Systems), for collagen secretion—with 1 ng/ml TGFβ, for proliferation—with FBS, 10 ng/ml PDGF-BB (R&D Systems) or 10 ng/ml FGF-2 (R&D Systems) and for migration—with 10 μg/ml human N-Cadherin-Fc (R&D Systems) or human OB-Cadherin-Fc (R&D Systems). […] The level of FMT was evaluated by western blot for SMA. Collagen secretion was measured by Sircol collagen assay (Biocolor Life Science). Proliferation assay was performed using the DELFIA system (PerkinElmer), and migration was assessed with the Oris System (Platypus Technology).

β-catenin = assay: Western blots for p-Ser552 β-catenin and total β-catenin from HLFs; assay type: cell-based, human; conditions: HLFs stimulated with TGFβ; FIG. 4A
Protocol: as §1
To assess the regulation of β-catenin in response to a fibrotic stimulus in HLFs, cells were stimulated with TGFβ and the expression levels and phosphorylation state of β-catenin were assessed by Western blot (FIG. 4A). There was no difference in the expression levels of total β-catenin in TGFβ-stimulated cells. However, when the cell lysates were probed with a phospho-specific β-catenin antibody, we found an increase in the phosphorylation of Ser552 upon TGFβ treatment. […]

OB-Cadherin = OB-Cadherin expression in HLFs (RT-PCR, western blot); assay type: cell-based, human; conditions: TGFβ treatment of HLFs; FIG. 1A
Protocol: (§2) Total RNA was extracted from HLFs, transcribed into cDNA and used for RT-PCR. Validated Taqman N-Cadherin, OB-Cadherin, vimentin or E-Cadherin primers and probes were purchased from Applied Biosystems.
(§3) Small interfering RNAs against N-Cadehrin and OB-Cadherin were purchased from Applied Biosystems. Knockdown efficiencies were tested by using real-time RT-PCR and confirmed to be 95% at the time of stimulation in the different functional assays.
as §1

N-Cadherin = N-Cadherin expression in HLFs (RT-PCR, western blot); assay type: cell-based, human; conditions: TGFβ treatment, low and high cell density; FIG. 1A
Protocol: as §2, §3, §1

[4] = cited from earlier work; remark: listed apart in the source
[5] = system: primary human lung fibroblasts (HLFs); assay: HLF migration, in vitro wound closure assay (Oris System); assay type: cell-based; conditions: 10 μg/ml N-Cadherin-Fc; FIG. 3A
Protocol: To assess functional responses, non-transfected HLFs or HLFs transfected with siRNAs were plated in full growth medium and left to grow overnight, starved for 24 h in serum-free medium and stimulated with different growth factors for a further 24 h. For FMT assessment, the HLF cells were stimulated with 5 ng/ml TGFβ (R&D Systems) or 10 μg/ml human N-Cadherin-Fc (R&D Systems), for collagen secretion—with 1 ng/ml TGFβ, for proliferation—with FBS, 10 ng/ml PDGF-BB (R&D Systems) or 10 ng/ml FGF-2 (R&D Systems) and for migration—with 10 μg/ml human N-Cadherin-Fc (R&D Systems) or human OB-Cadherin-Fc (R&D Systems). In the loss of function FMT experiment, 50 μg/ml N-Cadherin neutralizing antibody (clone GC-4, Sigma) was used. The level of FMT was evaluated by western blot for SMA. Collagen secretion was measured by Sircol collagen assay (Biocolor Life Science). Proliferation assay was performed using the DELFIA system (PerkinElmer), and migration was assessed with the Oris System (Platypus Technology).
Increased migration is a hallmark of myofibroblasts and is thought to contribute to the pathology of IPF. Therefore, we investigated the effects of N-Cadherin gain- and loss-of function on the migratory potential of HLFs. We performed an in vitro wound closure assay with cells treated with the recombinant N-Cadherin-Fc chimera or with N-Cadherin siRNA.

[6] = system: A549 epithelial alveolar type II cells; assay: Epithelial-to-mesenchymal transition (EMT) in A549 cells (RT-PCR, western blot, E-Cadherin immunocytochemistry); assay type: cell-based, human; conditions: recombinant N-Cadherin-Fc, immunocytochemistry for E-Cadherin
Protocol: A549 epithelial alveolar type II cells (ATCC) were maintained in DMEM supplemented with 10% heat-inactivated FBS and 1% Penicillin/Streptomycin and trypsinised every 4 days.
For EMT assessment, A549 cells were simulated with 5 ng/ml TGFβ (R&D Systems), a combination of 5 ng/ml TGFβ (R&D Systems) and 2.5 ng/ml IL-1β (R&D Systems) or N-Cadherin-Fc (R&D Systems). The level of EMT was evaluated either by RT-PCR and Western blot for vimentin and E-Cadheirn or by immunocytochemistry for E-Cadherin. In the loss of function EMT experiment, N-Cadherin neutralizing tool antibody or IgG isotype control were used in the presence of 18 μg/ml N-cadheirn-Fc (R&D Systems).

[7] = phase II trial with IPF patients
[8] = more recent clinical trial, discontinued in 2007

In the case of `Cc1ccc(=O)n(-c2ccccc2)c1` [Pirfenidone], the collagen synthesis [1] is listed as “reduces collagen synthesis”, the “mitogenic effects of pro-fibrotic cytokines” value [1] is listed as “blocks mitogenic effects” and the chest radiographs [2, 7] is listed as “did not improve”. The pulmonary functional tests [2, 7] was “stabilized or improved in some patients”, the side effects [2, 7] was “no severe side effects” and the survival rates [2, 7] was “improved”. The lung function ([2]; phase III clinical trial, IPF patients) was “might positively affect lung function”.

For “TGFβ: TGFβ (R&D Systems), pro-fibrotic stimulus used to induce FMT”, the SMA expression ([3]; TGFβ stimulation, low and high cell density) was “marked increase”, the “expression levels of total β-catenin” value (β-catenin) was “no difference” and the “phosphorylation of Ser552 of β-catenin” value (β-catenin) was “increase”. The OB-Cadherin expression (OB-Cadherin) was “upregulated” and the N-Cadherin expression (N-Cadherin) was “upregulated”.

For interferon, the clinical improvement ([4]; IPF patients refractory to corticosteroid or immunosuppressive therapy) is listed as “showed no improvement”, the clinical trial outcome [4, 8] is listed as “ineffectiveness” and the “patients death rates compared with placebo” value [4, 8] is listed as “slightly increased”.

B1: N-Cadherin-Fc: human N-Cadherin-Fc fusion protein (R&D Systems) that mimics N-Cadherin homophilic interactions and activates N-Cadherin signalling (protein)
chain: DWVIPPINLPENSRGPFPQELVRIRSDRDKNLSLRYSVTGPGADQPPTGIFIINPISGQLSVTKPLDREQIARFHLRAHAVDINGNQVENPIDIVINVIDMNDNRPEFLHQVWNGTVPEGSKPGTYVMTVTAIDADDPNALNGMLRYRIVSQAPSTPSPNMFTINNETGDIITVAAGLDREKVQQYTLIIQATDMEGNPTYGLSNTATAVITVTDVNDNPPEFTAMTFYGEVPENRVDIIVANLTVTDKDQPHTPAWNAVYRISGGDPTGRFAIQTDPNSNDGLVTVVKPIDFETNRMFVLTVAAENQVPLAKGIQHPPQSTATVSVTVIDVNENPYFAPNPKIIRQEEGLHAGTMLTTFTAQDPDRYMQQNIRYTKLSDPANWLKIDPVNGQITTIAVLDRESPNVKNNIYNATFLASDNGIPPMSGTGTLQIYLLDINDNAPQVLPQEAETCETPDPNSINITALDYDIDPNAGPFAFDLPLSPVTIKRNWTITRLNGDFAQLNLKIKFLEAGIYEVPIIITDSGNPPKSNISILRVKVCQCDSNGDCTDVDRIVGAGLGTGA
modifications: left off: a dimerising Fc or GST
With B1 the SMA expression ([3]; HLFs treated with 10 μg/ml N-Cadherin-Fc for 24 h, FIG. 2A) was “significant increase”, the “additive or synergistic effect on SMA expression” value ([3]; combination of TGFβ and N-Cadherin-Fc, 24 h) was “did not observe an additive or synergistic effect” and the “HLF migration into the wound” value [5] was “significant increase”. The “EMT, measured by decreased E-Cadherin signal” value [6] was “significant EMT”.

Reference: patent US20150050240A1, “TREATMENT OF FIBROSIS” (NOVARTIS AG, priority 2012, published 2015)
